From patent publication US6608032B1, “Medicinal compositions” (Takara Shuzo Co., Ltd., priority 1999, dated 2003) come the findings set out here.

One experiment deals with α-glucosidase. The experiment in a line: α-glucosidase inhibition with p-nitrophenyl-α-D-glucopyranoside. Type of experiment: biochemical, S. cerevisiae. On the procedure: (1) An α-glucosidase activity was measured by allowing α-glucosidase to act on p-nitrophenyl-α-D-glucopyranoside (a chromogenic substrate) and calorimetrically quantifying 4-nitrophenol released by hydrolysis.
10 μl of α-glucosidase solution [40 mU/ml, derived from S. cerevisiae, Sigma, dissolved in 10 mM phosphate buffer (pH 7.2 at 37° C.)] and 10 μl of a solution containing a test sample dissolved in 10 mM phosphate buffer (pH 7.2 at 37° C.) were mixed. 80 μl of a 1.5 mg/ml substrate solution [Sigma, dissolved in 10 mM phosphate buffer (pH 7.2 at 37° C.)] was added thereto to initiate the reaction. After reacting at 37° C. for 40 minutes, the absorbance at 410 nm was measured using Shimadzu uv2200. The remaining activity therein was calculated defining the activity observed without the addition of test sample as 100%.
Agarobiose, agarotetraose, agarohexaose and agarooctaose used as test samples were those prepared in Referential Example 1. Commercially available products of anhydrogalactose (Funakoshi), neoagarobiose (Sigma), neoagarotetraose (Funakoshi) and neoagarohexaose (Funakoshi) were used.

Experiment [1] relates to enzymes involved in the synthesis of prostaglandin E2 from arachidonic acid. The experiment can be described thus: Prostaglandin E2 generation from arachidonic acid, sample added directly to crude enzyme fraction. The class given is biochemical. The settings on record: 1 μL of 100 mM agarobiose, 100 mM agarohexaose, 10 mM DGE or 13 mM nimesulide added to 100 μL crude enzyme fraction; FIG. 15. On the procedure: 2.5 μL of 200 mM aqueous solution of glutathione, 2.5 μL of a suspension containing L-adrenaline at a concentration of 200 mM in water, and 1 μL of 100 mM aqueous solution of agarobiose, 100 mM aqueous solution of agarohexaose or 10 mM aqueous solution of DGE as a sample were added to 100 μL of the control sample from the crude enzyme fraction prepared in Example 15. 1 μL of water was added as a negative control. 1 μL of 13 mM nimesulide (Cayman, 70640) solution was added as a positive control. 1 μL of 3 mM arachidonic acid solution was then added to start the reaction. The mixture was reacted at 37° C. for 5 minutes. The reaction was stopped by heating at 100° C. for 2 minutes. The content of prostaglandin E2 in the reaction mixture was measured using Prostaglandin E2 ELISA Kit.

The test system of another experiment is heme oxygenase 1 protein. The experiment in a line: Heme oxygenase 1 induction in RAW264.7 cells (Western blot). Also on record: key: − represents no band observed; increase in the intensity of the band is represented as follows:+−<+<++; increase in the intensity of the band is represented as follows:+−<+<++; increase in the intensity of the band is represented as follows:+−<+<++. Type of experiment: cell-based. Conditions: positive control, 5 μl of 3 mM solution in dimethyl sulfoxide per 5 ml well; 15 hours. The protocol: RAW264.7 cells (ATCC TIB 71) were suspended in Dulbecco's modified Eagle's medium (Bio Whittaker, 12-604F) containing 10% fetal calf serum (Gibco) at a concentration of 3×10^5 cells/ml. 5 ml of the suspension was added to each well of a 6-well microtiter plate and the plate was incubated at 37° C. overnight in the presence of 5% CO2. 50 μl of a solution containing agarobiose or agarohexaose in Referential Example 1 at a concentration of 20 mM, 10 mM or 5 mM in water was added to the well. The plate was incubated for 15 hours. A positive control for heme oxygenase 1 induction in which 5 μl of 3 mM solution of 15-deoxy-Δ12,14 prostaglandin J2 (Cayman Chemical, 18570) in dimethyl sulfoxide was added, and a negative control in which water was added were provided. The cells were recovered by detaching the cells from the plate using a scraper and suspended in 0.1 M tris-HCl buffer (pH 7.5) containing 0.05 mM pepstatin A (Sigma, P5318), 0.2 mM leupeptin (Sigma, L2884), 1 mM phenylmethylsulfonyl fluoride (Nacalai Tesque, 273-27), 10 mm ethylenediaminetetraacetic acid disodium salt and 0.1% Triton X-100. A supernatant obtained by centrifuging the suspension after freezing and thawing was used as a protein fraction. The content of protein in the protein fraction was determined using Micro BCA Protein Assay Reagent (a product of Pierce sold by Takara Shuzo, P7411). A sample from the protein fraction prepared as described above was mixed with an equal volume of 0.125 M tris-hydrochloride buffer (pH 6.8) containing 4% sodium lauryl sulfate (SDS), 2% 2-mercaptoethanol, 0.001% Bromophenol Blue and 20% glycerol. After treatment at 100° C. for 5 minutes, a portion corresponding to 10 μg of protein was loaded on 12.5% SDS-polyacrylamide gel and electrophoresed at a constant current of 20 mA. After electrophoresis, the gel was transferred to a PVDF membrane (Millipore, IPVH000 10) at a constant voltage of 15 V for 25 minutes using a blotting buffer (containing 48 mM tris, 39 mM glycine, 20% methanol and 0.0375% SDS) and Trans-Blot SD Cell Semi-Dry blotting apparatus (Bio-Rad) according to the attached protocol. After transferring, the PVDF membrane was blocked in a solution of Block Ace (Dainippon Pharmaceutical, UK-B25) at 4° C. overnight. After blocking, the membrane washed three times in phosphate buffered saline containing 0.1% Tween 20 for 15 minutes with gentle shaking. The membrane was reacted in phosphate buffered saline containing 10% Block Ace, 0.1% Tween 20 and 200 ng/ml of anti-heme oxygenase 1 antibody (N-19; Santa Cruz, sc-7696) at room temperature for 1 hour with gentle shaking, and then washed three times in phosphate buffered saline containing 0.1% Tween 20 for 15 minutes with gentle shaking. The membrane was reacted in phosphate buffered saline containing 10% Block Ace, 0.1% Tween 20 and 0.1% peroxidase-labeled rabbit anti-goat IgG (H+L) antibody (Zymed, 61-1620) at room temperature for 1 hour with gentle shaking, and then washed five times in phosphate buffered saline containing 0.1% Tween 20 for 15 minutes with gentle shaking. The PVDF membrane was stained using Western Blot Chemiluminescence Reagent Plus (a product of NEN Life Science Products sold by Daiichi Pure Chemicals, NEL103) according to the attached protocol and exposed to an X-ray film (Kodak, CAT165 1454). After exposure, the film was developed using FPM800 (Fuji Film).
The intensity of the band depended on the concentration of agarobiose or agarohexaose. In the table, the intensity of the band for heme oxygenase 1 protein is expressed by the mark+. Specifically, − represents no band observed, and increase in the intensity of the band is represented as follows:+−<+<++.
(In general: A western blot detects proteins with antibodies after separation by electrophoresis.)

The next experiment concerns RAW264.7 cells. The experiment can be described thus: Prostaglandin E2 generation by crude enzyme fraction of RAW264.7 cells pre-treated with sample and LPS. Type of experiment: cell-based. Conditions: cells treated with 200 μl of 10 mM sample per 20 ml, 5 hours before LPS. The protocol:
(1) RAW264.7 cells (ATCC TIB 71) were suspended in Dulbecco's modified Eagle's medium (Bio Whittaker, 12-604F) containing 10% fetal calf serum (Gibco) at a concentration of 1×10^6 cells/ml. 20 ml of the suspension was added to a 10-cm Petri dish and the dish was incubated at 37° C. overnight in the presence of 5% CO2. 200 μl of a solution containing agarohexaose or DGE (obtained in Example 15-(2) below) at a concentration of 10 mM in water was added to the dish. The dish was incubated for 5 hours. 200 μl of a solution containing lipopolysaccharide (LPS, Sigma, L-2012) at a concentration of 100 μg/ml in water was added thereto. The dish was incubated for additional 12 hours. As a control, 200 μL of water was added in place of the sample. The cells were recovered by detaching the cells from the plate using a scraper and suspended in 0.1 M tris buffer (pH 8.0) containing 1 μg/ml pepstatin A (Sigma, P5318), 1 μg/ml leupeptin (Sigma, L2884) and 1 mM phenylmethylsulfonyl fluoride (Nacalai Tesque, 273-27). The cell membrane was destroyed by sonication. A supernatant collected by centrifugation was used as a crude enzyme fraction. The content of protein in the crude enzyme fraction was determined using Micro BCA Protein Assay Reagent (a product of Pierce sold by Takara Shuzo, P7411). 2.5 μL of 200 mM aqueous solution of glutathione (Nacalai Tesque, 170-50), 2.5 μL of a suspension containing L-adrenaline (Nacalai Tesque, 010-04) at a concentration of 200 mM in water, and 1 μL of 3 mM solution of arachidonic acid (Cayman, 90010.1) or 1 μL of 100 μg/mL solution of prostaglandin H2 (Cayman, 17020) were added to 100 μL of the sample from the crude enzyme fraction prepared as described above. The mixture was reacted at 37° C. for 30 minutes. The reaction was stopped by heating at 100° C. for 2 minutes. The content of prostaglandin E2 in the reaction mixture was measured using Prostaglandin E2 ELISA Kit (Neogen, 404110).

Take `OC1O[C@@H]2CO[C@@H]([C@H]2O)[C@H]1O` (stereo partly drawn) [Anhydrogalactose, 3,6-anhydrogalactopyranose]: the “Activity of inhibiting α-glucosidase (% remaining activity)” value with α-glucosidase (5 μM), in the experiment on α-glucosidase (50 μM), in the experiment on α-glucosidase (500 μM), with α-glucosidase (1000 μM) and in the experiment on α-glucosidase (5000 μM) was 100% throughout.
For `OC[C@H]1OC(O)[C@H](O)[C@@H](O[C@@H]2O[C@H]3CO[C@@H]([C@@H]2O)[C@@H]3O)[C@H]1O` (stereo partly drawn) [Neoagarobiose, neoagarobiose, reference compound], the “Activity of inhibiting α-glucosidase (% remaining activity)” value in the experiment on α-glucosidase (5 μM), in the experiment with α-glucosidase (50 μM), with α-glucosidase (500 μM), with α-glucosidase (1000 μM) and in the experiment with α-glucosidase (5000 μM) was 100% in each case.
Regarding `CS(=O)(=O)Nc1ccc([N+](=O)[O-])cc1Oc1ccccc1` [nimesulide, reference compound], in experiment [1], the “production of prostaglandin E2 from arachidonic acid” value is “suppressed”.
Turning to `CCCCC/C=C/C=C1/C(=O)C=C[C@@H]1C/C=C\CCCC(=O)O` [15-deoxy-Δ12,14 prostaglandin J2, reference compound], in the experiment on heme oxygenase 1 protein, the “Intensity of band for heme oxygenase 1 protein” value is “+”.
As to `O=C1C=CC(CO)OC1O` [DGE, L-glycero-1,5-epoxy-1αβ, 6-dihydroxy-cis-hex-3-en-2-one], the “production of prostaglandin E2, arachidonic acid added” value in the experiment with RAW264.7 cells (FIG. 13) was “suppressed as compared with the control”. Also, in the experiment with RAW264.7 cells (FIG. 14), the “production of prostaglandin E2, prostaglandin H2 added” value is on record as “suppressed as compared with the control”. The “production of prostaglandin E2 from arachidonic acid” value in experiment [1] is “not suppressed”.
On to `OC[C@H]1O[C@@H](O)[C@H](O)[C@@H](O[C@@H]2O[C@H]3CO[C@@H]([C@@H]2O)[C@@H]3O[C@@H]2O[C@H](CO)[C@H](O)[C@H](O[C@@H]3O[C@H]4CO[C@@H]([C@@H]3O)[C@@H]4O[C@@H]3O[C@H](CO)[C@H](O)[C@H](O[C@@H]4O[C@H]5CO[C@@H]([C@@H]4O)[C@@H]5O)[C@H]3O)[C@H]2O)[C@H]1O` [Neoagarohexaose, neoagarohexaose, reference compound], for which the “Activity of inhibiting α-glucosidase (% remaining activity)” value in the experiment with α-glucosidase (5 μM) worked out at 100%; in the experiment on α-glucosidase (50 μM), 100%; in the experiment on α-glucosidase (500 μM), 93%; in the experiment with α-glucosidase (1000 μM) it was 71%; with α-glucosidase (5000 μM), 8%.
As for agarooctaose, the “Activity of inhibiting α-glucosidase (% remaining activity)” value amounted to 91% in the experiment on α-glucosidase (5 μM); 90% with α-glucosidase (50 μM); 32% with α-glucosidase (500 μM); 26% in the experiment with α-glucosidase (1000 μM); 11% in the experiment on α-glucosidase (5000 μM).
On the same counts, the results for `OC[C@H]1O[C@@H](O)[C@H](O)[C@@H](O[C@@H]2O[C@H]3CO[C@@H]([C@@H]2O)[C@@H]3O[C@@H]2O[C@H](CO)[C@H](O)[C@H](O[C@@H]3O[C@H]4CO[C@@H]([C@@H]3O)[C@@H]4O)[C@H]2O)[C@H]1O` [Neoagarotetraose, neoagarotetraose, reference compound] are 100%, 93%, 89%, 76% and 42%.
